Assay results as given in the NIST ThermoML archive (doi:10.1021/acs.jced.8b00975).

Assay: xn = mol fraction of the nth substance listed
Settings: Liquid, Vibrating tube method

C=C(C)C(=O)OCCN(C)C [2-(dimethylamino)ethyl methylpropenoate] + CCO
mass density [kg/m3]
Settings | 100 kPa | 5000 kPa | 10000 kPa | 15000 kPa | 20000 kPa | 25000 kPa | 30000 kPa | 35000 kPa
293.15 K, x1 = 0.0298 | 802.7 | 807.13 | 811.22 | 815.04 | 818.66 | 822.14 | 825.55 | 828.95
293.15 K, x1 = 0.0598 | 814.88 | 819.12 | 823.12 | 826.9 | 830.51 | 834 | 837.41 | 840.78
293.15 K, x1 = 0.0999 | 829.26 | 833.46 | 837.4 | 841.12 | 844.67 | 848.1 | 851.44 | 854.75
293.15 K, x1 = 0.1997 | 856.9 | 861.05 | 864.9 | 868.5 | 871.93 | 875.24 | 878.49 | 881.75
293.15 K, x1 = 0.3001 | 876.95 | 880.93 | 884.66 | 888.19 | 891.58 | 894.86 | 898.09 | 901.32
293.15 K, x1 = 0.3966 | 891.39 | 895.28 | 898.93 | 902.38 | 905.7 | 908.93 | 912.15 | 915.39
293.15 K, x1 = 0.4472 | 897.49 | 901.33 | 904.98 | 908.47 | 911.83 | 915.1 | 918.3 | 921.47
293.15 K, x1 = 0.4982 | 902.96 | 906.87 | 910.51 | 913.95 | 917.24 | 920.43 | 923.58 | 926.74
293.15 K, x1 = 0.55 | 907.68 | 911.66 | 915.32 | 918.74 | 921.98 | 925.14 | 928.28 | 931.5
293.15 K, x1 = 0.5964 | 911.67 | 915.5 | 919.12 | 922.56 | 925.87 | 929.09 | 932.25 | 935.39
293.15 K, x1 = 0.6982 | 918.77 | 922.55 | 926.15 | 929.6 | 932.93 | 936.16 | 939.33 | 942.44
293.15 K, x1 = 0.801 | 924.6 | 928.44 | 932.04 | 935.46 | 938.75 | 941.94 | 945.09 | 948.24
293.15 K, x1 = 0.8977 | 929.03 | 932.82 | 936.35 | 939.69 | 942.92 | 946.09 | 949.28 | 952.57
293.15 K, x1 = 0.9283 | 930.22 | 934.07 | 937.67 | 941.06 | 944.32 | 947.48 | 950.62 | 953.79
293.15 K, x1 = 0.9578 | 931.42 | 935.21 | 938.78 | 942.2 | 945.49 | 948.71 | 951.88 | 955.05
303.15 K, x1 = 0.03 | 794.45 | 798.97 | 803.18 | 807.13 | – | – | – | –
303.15 K, x1 = 0.0603 | 806.55 | 811.05 | 815.24 | 819.16 | – | – | – | –
303.15 K, x1 = 0.1002 | 820.45 | 824.89 | 829.01 | 832.87 | – | – | – | –
303.15 K, x1 = 0.2021 | 848.13 | 852.39 | 856.38 | 860.15 | – | – | – | –
303.15 K, x1 = 0.3014 | 867.56 | 871.73 | 875.66 | 879.39 | – | – | – | –
303.15 K, x1 = 0.4003 | 882.15 | 886.21 | 890.08 | 893.8 | – | – | – | –
303.15 K, x1 = 0.4499 | 888.16 | 892.11 | 895.91 | 899.59 | – | – | – | –
303.15 K, x1 = 0.5006 | 893.42 | 897.42 | 901.25 | 904.92 | – | – | – | –
303.15 K, x1 = 0.5488 | 897.81 | 901.82 | 905.64 | 909.31 | – | – | – | –
303.15 K, x1 = 0.5998 | 902.09 | 906.13 | 909.95 | 913.6 | – | – | – | –
303.15 K, x1 = 0.703 | 909.18 | 913.16 | 916.96 | 920.63 | – | – | – | –
303.15 K, x1 = 0.8012 | 914.76 | 918.73 | 922.51 | 926.15 | – | – | – | –
303.15 K, x1 = 0.9025 | 919.51 | 923.46 | 927.24 | 930.9 | – | – | – | –
303.15 K, x1 = 0.9288 | 920.51 | 924.41 | 928.15 | 931.75 | – | – | – | –
303.15 K, x1 = 0.9594 | 921.58 | 925.48 | 929.24 | 932.89 | – | – | – | –
